Test results taken from article PMC8875392, “Design and Characterization of Myristoylated and Non-Myristoylated Peptides Effective against Candida spp. Clinical Isolates” (International Journal of Molecular Sciences, 2022).
Where no end group is shown, it is not given here.

Assays:
[1] = system: C. parapsilosis clinical isolates; format: cell-based, Candida parapsilosis; settings: clinical isolates, 16 h
Protocol: (§1) The antifungal activity of AMPs was determined against 50 clinical isolates, 10 for each of the following Candida species: C. albicans, C. tropicalis, C. glabrata, C. parapsilosis, and C. auris. The latter were derived from patients with positive blood cultures in four hospitals in India, with known resistance profiles to fluconazole, voriconazole, and echinocandins. Yeast cells were grown in Brain Heart Infusion (BHI) medium (Sigma-Aldrich, Gillingham, UK) for 16 h at 37 °C in a 150-rpm orbital shaker. Cells were then sub-inoculated in a fresh BHI medium and grown to an optical density (OD) of 0.3. The turbidity of the inoculum was adjusted to 0.5 McFarland and diluted 1:500 in RPMI 1640 broth, corresponding to around […].
(§2) Minimal inhibitory concentrations (MICs) were determined by Broth microdilution susceptibility tests, according to The Clinical and Laboratory Standards Institute (CLSI) international guidelines. A fungal suspension of 0.5 MacFarland was diluted 1:500 in RPMI 1640 broth and incubated in 96 multi-well plates containing AMPs at different concentrations ranging from 0.125 to 256 μg/mL. In this range of concentration, lipopeptides were completely soluble. […] The MIC90 represents the value at which ≥90% of the strains within a test population were inhibited.

[2] = system: C. auris clinical isolates; format: cell-based, Candida auris; settings: clinical isolates, 16 h
Protocol: as §1, §2

[3] = system: Galleria mellonella larvae; assay: In vivo peptide toxicity in Galleria mellonella model; settings: uninfected larvae, groups of ten, peptide 640 µg/mL, single injection, 30 °C
Protocol: Multidrug-resistant C. auris was chosen as a representative species for in vivo studies. […] Groups of ten G. mellonella larvae were infected with C. auris and treated with the Pep-B and Myr-B peptides at a concentration of 640 µg/mL (about 400 µM).
Ten larvae (250–320 mg each) were selected at random for each step in the procedure. Any larvae with darkening of the cuticle were discarded. The test compounds and yeast were injected into the hemocoel in water buffer through the last left proleg (Insumed 30G Pic, Italy, syringe volume 0.5 mL, needle size 30G). The larvae were incubated in the dark for 3 days, and mortality was recorded daily.
For the peptide efficacy experiment, ten larvae were injected into the last left proleg with a pre-determined infective dose of yeast and the dose of peptides at the same time in a final volume of 10 μL and incubated at 30 °C. Each step in the procedure included six groups of 10 larvae: C. auris-infected larvae (10^7 CFU), infected and treated larvae with peptide B (640 μg/mL), infected and treated larvae with peptide Myr-B (640 μg/mL), treated larvae with peptide B (640 μg/mL), treated larvae with peptide Myr-B (640 μg/mL), and vehicle-injected control (water). The mortality was recorded daily for 3 days.

[4] = system: C. glabrata clinical isolates; format: cell-based, Candida glabrata; settings: 16 h
Protocol: as §1, §2

[5] = system: C. albicans clinical isolates; format: cell-based, Candida albicans; settings: 16 h
Protocol: as §1, §2

[6] = system: C. tropicalis clinical isolates; format: cell-based, Candida tropicalis; settings: clinical isolates, 16 h
Protocol: as §1, §2

rabbit erythrocytes = settings: 5 µM
Protocol: The hemolytic assay was performed on rabbit erythrocytes (Rockland) maintained in Alsever’s solution (Innovative Research). Briefly, after the removal of Alsever’s solution, the erythrocytes were resuspended in PBS and counted in a hemocytometer. A suspension of 5,000,000 red blood cells was incubated with four dilutions (from 5 µm to 50 µm) of the six peptides in a 96-well microplate. As a negative control, erythrocytes were incubated without the peptides, while as a positive control, erythrocyte was added with triton 10% v/v. The plate was incubated at 37 °C for 2 h and subsequently centrifuged at 1200 rpm × 3 min to separate the pellet from the supernatant. The absorbance of the supernatant was measured at 492 nm. Each point was made in triplicate. The relative OD compared to the positive control defined the percentage of hemolysis [71]. Statistical analysis was performed using two-way ANOVA analysis followed by Bonferroni’s post-test.

Row | Sequence | MIC [1] [µg/mL] | MIC90 [1] [µg/mL] | MIC90 [2] [µg/mL] | Peptide toxicity, DAY 1 Dead [3] | Peptide toxicity, DAY 2 Dead [3] | Peptide toxicity, DAY 3 Dead [3] | MIC [4] [µg/mL] | MIC90 [4] [µg/mL] | MIC [5] [µg/mL] | MIC90 [5] [µg/mL] | MIC90 [6] [µg/mL] | hemolysis (rabbit erythrocytes) [%]
1 | WRGITKVVKKV [Pep-B] | > 256 | >256 | >256 | 3 | 5 | 9 | > 256 | >256 | > 256 | >256 | >256 | –
2 | WVVKKVKGLLK [Pep-C] | > 256 | >256 | >256 | – | – | – | > 256 | >256 | > 256 | >256 | >256 | –
3 | WFGKLYRGITK [Pep-A] | > 256 | >256 | >256 | – | – | – | > 256 | >256 | > 256 | >256 | >256 | 0.1
